# Laboratory results reported in patent publication US20080064701A1, “Anti-diabetic combinations” (priority 2007, published 2008).
# Like-named read-outs stand apart in the source and are kept apart here.
# Columns and labels:
# [1] = system: patients with type 2 diabetes; conditions: human, in vivo; for patients who had adverse events: 24 weeks
# From the text: Laboratory results were then reviewed for these particular patients to determine which patients actually had clinically important changes in a given laboratory parameter.
# [2] = system: patients with T2DM; conditions: cited from earlier work
# [3] = monotherapy, 100 or 200 mg daily
SMILES,patients who had adverse events [1],clinically important decreases in any hematological parameter attributable to drug [1],responsibility for clinically meaningful elevations in ALT and AST [1],weight gain ([2]; 24-week monotherapy studies),"patients achieving a HbA1C of <7% ([2]; 24-week, background pioglitazone (30 or 45 mg daily))","mean HbA1C reduction ([2]; 24-week, sitagliptin 100 mg daily add-on to pioglitazone (30 or 45 mg daily), mean baseline HbA1C 8.1%)","HbA1C [2, 3]","hypoglycemia [2, 3]",fasting and postprandial glycaemia ([2]; monotherapy),"mean placebo-subtracted reduction in HbA1C ([2]; sitagliptin 100 mg daily added to at least 1,500 mg per day of metformin)","patients achieving a HbA1C of <7% ([2]; sitagliptin 100 mg daily added to at least 1,500 mg per day of metformin, mean baseline HbA1C 8%)"
CN(C)C(=N)N=C(N)N [metformin],10%,,,,,,,,,,
"N[C@@H](CC(=O)N1CCn2c(nnc2C(F)(F)F)C1)Cc1cc(F)c(F)cc1F [sitagliptin, Sitagliptin]",8%,no patient experienced clinically important decreases,not responsible for the variations,no significant weight gain,45.4%,0.7%,significantly reduced,no significant increase in hypoglycemia,reduced both fasting and postprandial glycaemia,0.65%,47%
